US7910624B1, “Compositions for the treatment of blood disorders” (The Trustees of Boston University, priority 1995, dated 2011)

Experiments:
[1] = tested on: erythroid progenitor cells cultured from human cord blood; assay: Fetal globin expression in human cell cultures (3H-leucine labelled globin chains, densitometry); format: cell-based
Experimental: Compositions were tested for activity in inducing fetal globin expression and protein production in erythroid progenitor cells cultured from human cord blood and analyzed as described by S. P. Perrine et al. (Blood 74: 454-60, 1989). Briefly, mononuclear cells were cultured in IMDM with 30% fetal calf serum and 2 units erythropoietin per ml to induce erythroid differentiation. Colonies were harvested on day 12-13, incubated with radio-labelled (^3H) leucine, and further incubated in leucine-free media, still in the presence of compounds, overnight. Globin composition in the erythroid cells was analyzed by laser densitometry of electrophoretically separated globin chains stained with Coomassie blue, and by autoradiography. Treated cells were incubated for 12-13 days (Table 2, Experiments A and B) or overnight (Table 2, Experiment C) in the presence of the indicated compounds and compared to untreated control cells cultured from the same human subject.

anemic juvenile baboons = assay: In vivo reticulocyte proliferation and globin expression in phlebotomized anemic baboons; parameters: species or system baboon; settings: for fetal reticulocytes on treatment: 4 days, baseline 4%
Experimental: Experiments were performed to determine if administration of the chemical compositions could induce fetal globin gene expression in an in vivo model similar to humans (S. P. Perrin et al., Brit. J. Haematol. 88:555-61, 1994). Briefly, chemicals were prepared as sterile pharmaceutical solutions in pH adjusted sterile water. A variety of chemical compositions were administered sequentially to some baboons. After administration of one compound, a wash-out period with no compound administration was maintained until reticulocytes returned to base line prior to administration of the next compound. This was done, at least partly, to compare the magnitude of response which occurred within the same individual animal to different compounds.
Briefly, juvenile female baboons (2 years old) were catheterized with arterial and venous catheters and phlebotomized gradually every day to maintain a moderate anemia of 7.0 to 7.5 grams hemoglobin/dl. Fetal reticulocytes, the newly produced red blood cells containing fetal globin, were assayed using a monoclonal antibody against fetal globin (HbF) as described by G. Dover et al. (Blood 67:735-38, 1986). Briefly, blood was stained with two antibodies, one specific for reticulocytes and another against fetal globin protein. The amount of antibody bound cells was determined by FACS analysis. Globin chain synthesis was assayed as described by J. B. Clegg et al. (J. Mol. Biol. 19:91-108, 1966). Briefly, reticulocytes were radio-labeled with ^3H-leucine which was incorporated in equal proportions into actively synthesized globin chains. After incubation in leucine-free media, cells were washed, and globin proteins were separated and purified by column chromatography. Radioactivity incorporated into each peak is compared and the ratios of gamma to gamma plus beta globin calculated. Each animal served as its own control with baseline monitoring assays performed for 4-6 weeks before any drug was administered. Phlebotomy was continued daily, so that peripheral HbF levels in the animals were not considered to be accurate over the short treatment time-frames and were not monitored. Safety monitoring was performed by frequent physical examinations, quantitation of food eaten, activity and frequent chemistry and hematology monitoring. Complete blood counts were assayed before, during and after treatment. Results presented were not adjusted to account for the daily phlebotomy.

human erythroid cells = assay: DNA fragmentation by flow cytometry (propidium iodide); format: cell-based; settings: for effect in DNA fragmentation assays: summary statement
Experimental: (§1) Such activities might limit their utility for treatment of anemias such as occur in thalassemia, but alternatively would be useful for anticancer effects. To determine cell viability, human erythroid cells were cultured in the presence and absence of these compounds for 4 days and the amount of DNA fragmentation which occurred was measured.
Flow cytometric determination of DNA profiles and DNA fragmentation were determined. Cytometric analysis was performed with a FACScan (Becton Dickenson Instruments; Columbia, Md.). The data analysis and display were performed using the Cell-Fit software program. Approximately 0.5×10^6 cells were washed twice with PBS and resuspended in 1 ml of 1% sodium citrate, 0.1% Triton X-100 and […] of propidium iodide/ml. Resulting permeabilized cells were kept in the dark at 4° C. overnight before DNA profile or DNA fragmentation analysis (Table 4).

[2] = tested on: erythroid cells (peripheral blood cells); assay: Erythroid cell viability by Calcein-AM fluorescent staining (FIG. 2); format: cell-based; settings: 0.5 mM
Experimental: Compositions were tested for the ability to directly stimulate erythroid cell growth. Cell growth stimulation is a useful property for an agent to be used to treat anemias and distinguishes such agents from the cytotoxic drugs currently being tested for treatment of hemoglobinopathies. Cell viability analyses were performed using fluorescent staining to detect living cells. Cells were in log phase of growth in 6-well dishes when used in proliferation assays. For enumeration of living cells, wells were washed once with medium to remove nonadherent or dead cells. Remaining live cells were labeled with 2 μM 2′,7′-bis-(carboxyethyl)-5-(and 6)-carboxy-fluorescein acetoxy-methyl ester (Calcein-AM) (Molecular Probes; Eugene, Oreg.) for 20 minutes at 37° C. and washed once. Fluorescence intensity of live cells was read on a CytoFluor 2300 Fluorescence Plate Scanner (Millipore; Bedford, Mass.) at excitation and emission wavelengths of 485 and 530 nm, respectively. The fluorescence intensity of a well was proportional to the number of living cells in the well. Background fluorescence was measured separately for each plate and subtracted from all readings. Each experiment was performed in triplicate or quadruplicate. The standard deviation (SD) of repetitive readings was less than 30% of the mean. Results are depicted in FIG. 2.

[3] = tested on: Human erythroleukemia cells; assay: Fetal globin mRNA in erythroleukemia cells by primer extension; format: cell-based; settings: 1.0 mM; 4 days
Experimental: Compounds were tested for increased expression of the human globin genes in human erythroid cells. In addition, as the cell line being tested is a tumor cell line, the assay determines if differentiation, a growth inhibitory effect on cancer cells, is induced by the compounds tested. Human erythroleukemia cells were cultured in RPMI media with 10% fetal calf serum alone or with treatment with various compounds for 4 days. Globin mRNA was quantitated by primer extension analysis. Fetal globin mRNA was compared to the amount of fetal globin mRNA produced in untreated cells during the same culture period. The quantitation was expressed as a percent of alpha globin mRNA which was constant. Results are expressed proportional to α-globin mRNA (Table 3).

K562 cells = assay: Dose response, total and viable cells by trypan blue exclusion (FIG. 3); format: cell-based, human; settings: up to 2.0 mM, day 4
Experimental: FIG. 3 A FIG. 3E Cell viability as determined by the comparative numbers of total and viable K562 cells in the presence of increasing concentrations of (A) phenoxyacetic acid, (B) dihydrocinnamic acid, (C) butyric acid ethyl ester, (D) arginine butyrate, and (E) isobutyramide.
Dose response curves at dosages of up to 2.0 mM were also determined for phenoxyacetic acid (PAA; FIG. 3A), dihydrocinnamic acid (DHC; FIG. 3B), butyric acid ethyl ester (BAEE; FIG. 3C), arginine butyrate (AB; FIG. 3D) and isobutyramide (IBT; FIG. 3E). Cells were counted on day 4 of treatment and viable cells identified by trypan blue exclusion.

[4] = tested on: human erythroid cell line K562; assay: Cell viability / growth of K562 by Calcein-AM fluorescence; format: cell-based; settings: 0.5 mM; over 3 days
Experimental: as §1
Cell viability analyses were performed using fluorescent staining to detect living cells. Cells were in log phase of growth in 6-well dishes when used in proliferation assays. For enumeration of living cells, wells were washed once with medium to remove nonadherent or dead cells. Remaining live cells were labeled with Calcein-AM for 20 minutes at 37° C. and washed once. Fluorescence intensity of adherent live cells was read on a CytoFluor 2300 Fluorescence Plate Scanner (Millipore; Bedford, Mass.) at excitation and emission wavelengths of 485 and 530 nm, respectively. The fluorescence intensity of a well was proportional to the number of living cells in the well. Background fluorescence was measured separately for each plate and subtracted from all readings. Each experiment was performed in triplicate or quadruplicate. The standard deviation (SD) of repetitive readings was less than 30% of the mean.
At higher concentrations, still easily achievable in vivo, arginine butyrate (0.5 mM) and dihydrocinnamic acid (greater than 0.5 mM) inhibited growth of this tumor cell line by approximately 50%. Therefore, these compounds are also useful as anti-tumor agents.

[5] = tested on: patient with thalassemia intermedia; assay: Isobutyramide treatment of a patient with thalassemia, blood counts and hemoglobin; format: in vivo, human; settings: 50 mg/kg 3 days/week
Experimental: This patient received isobutyramide at 50 mg/kg for 3 days/week over the course of the study.

[6] = tested on: Human mammary carcinoma cells (MCF-7); assay: Human mammary carcinoma cell viability by FACS; format: cell-based; settings: 1.0 mM; 4 days
Experimental: Human mammary carcinoma cells (MCF-7) were cultured alone (controls) and with arginine butyrate or isobutyramide for 4 days. Viability was assayed by FACS after incubation with a fluorescent dye taken up by viable cells (FIG. 6). Growth was decreased by 50% with isobutyramide at 1.0 mM, about 60% with arginine butyrate at 0.5 mM, and greater than 90% with arginine butyrate at 1.0 mM.

[7] = tested on: system A transport in K562 cells and nucleated erythroblasts from fetal liver; assay: System A (neutral amino acid) transport, 3H-MAIB uptake; format: cell-based, human; settings: 1 hour incubation; FIG. 12
Experimental: Inhibition of nutrient uptake is undesirable for treatment of anemias. Methyl aminoisobutyric acid (MAIB) labeled with tritium (^3H) is normally taken up by system A amino acid transport. Cold (unlabeled) compounds were added to cultures containing ^3H-MAIB and incubated for 1 hour. Cells were harvested and the amount of ^3H taken up by cells was quantitated by scintillation counting.

[8] = tested on: erythroblast culture from peripheral blood of patients with sickle cell anemia; assay: Induction of fetal globin in erythroblasts by steel factor; format: cell-based, human
Experimental: Peripheral blood was obtained from patients with sickle cell anemia. Mononuclear cells were isolated on Ficoll-Hypaque gradients. One culture was treated with 100 ng/ml steel factor for 13 days and compared with an untreated control. […] A second culture was incubated overnight with an identical dose of steel factor Plus ^3H-leucine. Amounts of labeled globin proteins synthesized in untreated (FIG. 5A) and steel factor treated (FIG. 5B) cells were determined by autoradiography and quantitated (scanned) by laser densitometry. […] The increase observed included both G-γ, and A-γ globin proteins.

[9] = 1.0 mM to 2.0 mM, untreated cells 26%
[10] = 2.0 mM, 4 days, controls 26%, 22%
[11] = 25 and 100 μg/kg subcutaneously

With `CCCC(=O)OCC` [BAEE, butyric acid ethyl ester] the “Gamma Increase” value ([1]; Exp. A, 0.1 mM, 12-13 days, above untreated cells) was 13.0%, the “Gamma Increase” value ([1]; Exp. B, 0.2 mM, 12-13 days) was 8.5% and the “Gamma Increase” value ([1]; Exp. C, 0.1 mM, overnight) was 12.5%. The “increase of fetal reticulocytes above basal levels” value (anemic juvenile baboons; intravenous 3 days, 500 to 1,000 mg/kg per day) was “over 1,100%”, the “increase of fetal reticulocytes” value (anemic juvenile baboons; intravenous 3 days, 500 to 1,000 mg/kg per day (FIG. 11)) was 11.3 fold and the “Degraded DNA” value (human erythroid cells; [9]) was 13.8%. For the same molecule, the “Degraded DNA” value (human erythroid cells; [10]) was 13.8%, the “effect in DNA fragmentation assays” value (human erythroid cells) was “reduce DNA fragmentation” and the “erythroid cell growth and proliferation compared to untreated controls (FIG. 2)” value [2] was “either had no effect or stimulated erythroid cell growth and proliferation”. For the same molecule, the “induction of fetal globin mRNA in human cells” value [3] was “significantly increased”, the “proliferation (dose response, FIG. 3)” value (K562 cells) was “did not significantly inhibit proliferation” and the “growth of K562” value [4] was “either did not inhibit, or slightly enhanced growth”.
For `CC(C)C(N)=O` [IBT, isobutyramide], the “fetal globin (HbF)” value ([5]; four month study period) was “lack of increased fetal globin”, the “rise of hematocrit (Hct)” value ([5]; four month study period) was 5.8% and the “rise of hemoglobin (Hgb)” value ([5]; four month study period) was 1.6 g/dL. The “rise of reticulocytes (Retics)” value ([5]; four month study period) was “about 50%”, the rise of total red blood cells (RBC) ([5]; four month study period) was about 1e+06 cells/µL and the “Hemoglobin-A1 and hemoglobin-A2 levels” value ([5]; throughout the study) was “approximately constant”. The Retics ([5]; Day 8) was 2.5 ×10^6 cells, the HbF ([5]; Day 22) was 0.4 and the Retics ([5]; Day 22) was 2.0 ×10^6 cells. The Hgb-A2 ([5]; Day 29) was 7.0, the Retics ([5]; Day 29) was 2.0 ×10^6 cells and the HbF ([5]; Day 36) was 0.4. For the same molecule, the Retics ([5]; Day 43) was 2.0 ×10^6 cells, the RBC ([5]; Day 96, 50 mg/kg) was 7.3e+06 cells/µL and the “decrease of growth of MCF-7” value [6] was 50%. The “system A transport of amino acids (3H-MAIB uptake)” value [7] was “inhibited the neutral amino acid transport mechanism”, the “Degraded DNA” value (human erythroid cells; [9]) was 44% and the “Degraded DNA” value (human erythroid cells; [10]) was 34%. The “effect in DNA fragmentation assays” value (human erythroid cells) was “decrease cell viability” and the “erythroid cell growth and proliferation compared to untreated controls (FIG. 2)” value [2] was “either had no effect or stimulated erythroid cell growth and proliferation”.
With “steel factor: hematopoietic factor, also referred to as kit ligand, mast cell growth factor and stem cell factor” the “rise in numbers of newly-formed blood cells producing fetal globin” value (anemic juvenile baboons; [11]) was 300-500%, the “rise of fetal globin chain protein” value (anemic juvenile baboons; [11]) was 3 fold and the “total increase of gamma globin expression in the bone marrow” value (anemic juvenile baboons; [11]) was 9 fold. The “fetal globin chain protein after treatment” value (anemic juvenile baboons; 25 and 100 μg/kg subcutaneously, undetectable before treatment) was “about 3 % of total non-alpha globin”, the “fetal reticulocytes on treatment” value (anemic juvenile baboons; first dose regimen: 25 μg/kg subcutaneously once daily) was 15% and the “fetal reticulocytes on treatment” value (anemic juvenile baboons; second dose regimen: 100 μg/kg subcutaneously) was 12%. The “gamma globin expression after treatment” value ([8]; 100 ng/ml overnight plus 3H-leucine, increased from 17.6%) was 43.3%, the “gamma globin expression in BFU-e cells after treatment” value ([8]; 100 ng/ml, 13 days, increased from 14%) was 23.3% and the “Gamma globin expression, mean increase” value ([8]; 100 ng/ml, 13 days, versus untreated control) was 16.1%.
